Measurements taken from paper PMC6801739, “Antitumor Activity of a Novel Tyrosine Kinase Inhibitor AIU2001 Due to Abrogation of the DNA Damage Repair in Non-Small Cell Lung Cancer Cells” (International Journal of Molecular Sciences, 2019).
pIC50: −log10 of the molar value.

What was measured:
FLT4 = target: T1, FLT4 (Homo sapiens, UniProt P35916); assay: In vitro kinase assay, IC50 (Reaction Biology Corp.); format: biochemical
T1 construct: purchased Eurofins Pharma Discovery (KinaseProfiler); IC50 values by Reaction Biology Corp

c-KIT (V560G) = target: T2, c-KIT (V560G) (Homo sapiens, UniProt P10721, V560G); assay: as above; format: biochemical
T2 construct: purchased Eurofins Pharma Discovery (KinaseProfiler); IC50 values by Reaction Biology Corp

AMPKα1 = target: T3, AMPKα1 (Homo sapiens, UniProt Q13131); assay: Kinase profiling at 10 μM (Eurofins); format: biochemical; settings: read-out: Inhibitory activity
T3 construct: purchased Eurofins Pharma Discovery (KinaseProfiler); IC50 values by Reaction Biology Corp

ARK5 = target: T4, ARK5 (Homo sapiens, UniProt O60285); assay: Kinase profiling at 10 μM (Eurofins); format: biochemical; settings: read-out: Inhibitory activity
T4 construct: purchased Eurofins Pharma Discovery (KinaseProfiler); IC50 values by Reaction Biology Corp

B-RAF = target: T5, B-RAF (Homo sapiens, UniProt P15056); assay: Kinase profiling at 10 μM (Eurofins); format: biochemical; settings: read-out: Inhibitory activity
T5 construct: purchased Eurofins Pharma Discovery (KinaseProfiler); IC50 values by Reaction Biology Corp

CHK2 = target: T6, CHK2 (Homo sapiens, UniProt O96017); assay: Kinase profiling at 10 μM (Eurofins); format: biochemical; settings: read-out: Inhibitory activity
T6 construct: purchased Eurofins Pharma Discovery (KinaseProfiler); IC50 values by Reaction Biology Corp

DAPK1 = target: T7, DAPK1 (Homo sapiens, UniProt P53355); assay: Kinase profiling at 10 μM (Eurofins); format: biochemical; settings: read-out: Inhibitory activity
T7 construct: purchased Eurofins Pharma Discovery (KinaseProfiler); IC50 values by Reaction Biology Corp

EPHB4 = target: T8, EPHB4 (Homo sapiens, UniProt P54760); assay: Kinase profiling at 10 μM (Eurofins); format: biochemical; settings: read-out: Inhibitory activity
T8 construct: purchased Eurofins Pharma Discovery (KinaseProfiler); IC50 values by Reaction Biology Corp

ERBB2 = target: T9, ERBB2 (Homo sapiens, UniProt P04626); assay: Kinase profiling at 10 μM (Eurofins); format: biochemical; settings: read-out: Inhibitory activity
T9 construct: purchased Eurofins Pharma Discovery (KinaseProfiler); IC50 values by Reaction Biology Corp

ERBB4 = target: T10, ERBB4 (Homo sapiens, UniProt Q15303); assay: Kinase profiling at 10 μM (Eurofins); format: biochemical; settings: read-out: Inhibitory activity
T10 construct: purchased Eurofins Pharma Discovery (KinaseProfiler); IC50 values by Reaction Biology Corp

FGFR1 = target: T11, FGFR1 (Homo sapiens, UniProt P11362); assay: Kinase profiling at 10 μM (Eurofins); format: biochemical; settings: read-out: Inhibitory activity
T11 construct: purchased Eurofins Pharma Discovery (KinaseProfiler); IC50 values by Reaction Biology Corp

FGFR2 = target: T12, FGFR2 (Homo sapiens, UniProt P21802); assay: Kinase profiling at 10 μM (Eurofins); format: biochemical; settings: read-out: Inhibitory activity
T12 construct: purchased Eurofins Pharma Discovery (KinaseProfiler); IC50 values by Reaction Biology Corp

FLT1 = target: T13, FLT1 (Homo sapiens, UniProt P17948); assay: Kinase profiling at 10 μM (Eurofins); format: biochemical; settings: read-out: Inhibitory activity
T13 construct: purchased Eurofins Pharma Discovery (KinaseProfiler); IC50 values by Reaction Biology Corp

HIPK2 = target: T14, HIPK2 (Homo sapiens, UniProt Q9H2X6); assay: Kinase profiling at 10 μM (Eurofins); format: biochemical; settings: read-out: Inhibitory activity
T14 construct: purchased Eurofins Pharma Discovery (KinaseProfiler); IC50 values by Reaction Biology Corp

IKKα = target: T15, IKKα (Homo sapiens, UniProt O15111); assay: Kinase profiling at 10 μM (Eurofins); format: biochemical; settings: read-out: Inhibitory activity
T15 construct: purchased Eurofins Pharma Discovery (KinaseProfiler); IC50 values by Reaction Biology Corp

p70S6K = target: T16, p70S6K (Homo sapiens, UniProt P23443); assay: Kinase profiling at 10 μM (Eurofins); format: biochemical; settings: read-out: Inhibitory activity
T16 construct: purchased Eurofins Pharma Discovery (KinaseProfiler); IC50 values by Reaction Biology Corp

ROCK-I = target: T17, ROCK-I (Homo sapiens, UniProt Q13464); assay: Kinase profiling at 10 μM (Eurofins); format: biochemical; settings: read-out: Inhibitory activity
T17 construct: purchased Eurofins Pharma Discovery (KinaseProfiler); IC50 values by Reaction Biology Corp

ROS = target: T18, ROS (Homo sapiens, UniProt P08922); assay: Kinase profiling at 10 μM (Eurofins); format: biochemical; settings: read-out: Inhibitory activity
T18 construct: purchased Eurofins Pharma Discovery (KinaseProfiler); IC50 values by Reaction Biology Corp

TrkA = target: T19, TrkA (Homo sapiens, UniProt P04629); assay: Kinase profiling at 10 μM (Eurofins); format: biochemical; settings: read-out: Inhibitory activity
T19 construct: purchased Eurofins Pharma Discovery (KinaseProfiler); IC50 values by Reaction Biology Corp

PI3 Kinase (p110a/p85a) = target: T20, PI3 Kinase (p110a/p85a) (Homo sapiens, UniProt P42336); assay: Kinase profiling at 10 μM (Eurofins); format: biochemical; settings: read-out: Inhibitory activity
T20 construct: purchased Eurofins Pharma Discovery (KinaseProfiler); IC50 values by Reaction Biology Corp

A549 cells [1] = assay: Cell cycle analysis (PI, flow cytometry); format: cell-based, human; settings: 5 μM
Description: (§1) Samples were collected at the indicated time points and fixed in 70% cold ethanol overnight. For cell cycle analysis, the fixed cells were treated with RNase for 20 min before addition of 50 μg/mL PI and analyzed using FACS Calibur™ (BD Biosciences, San Jose, CA, USA).

H1299 cells [2] = assay: Cell cycle analysis (PI, flow cytometry); format: cell-based, human; settings: 5 μM
Description: as §1

A549 cells [3] = assay: qPCR of DNA damage repair genes and STAT5 mRNA; format: cell-based, human; settings: 24 h
From the text: (§2) RNA was extracted using TRIzol® RNA isolation reagent (ThermoFisher Scientific). RNA was reverse-transcribed into cDNA using the M-MLV reverse transcriptase (Enzynomics, Daejeon, Korea) and RNase inhibitor (Promega, Madison, WI, USA). The sequence of the primers targeting human BRCA1, BRCA2, RAD51, BARD1, XRCC6, and XRCC5 are as follows: BRCA1 sense 5′-[…]-3′, BRCA1 antisense 5′-[…]-3′, BRCA2 sense 5′-[…]-3′, BRCA2 antisense 5′-[…]-3′, RAD51 sense 5′-[…]-3′, RAD51 antisense 5′-[…]-3′, BARD1 sense 5′-[…]-3′, BARD1 antisense 5′-[…]-3′, XRCC6 sense 5′-[…]-3′, XRCC6 antisense 5′-[…]-3′, XRCC5 sense 5′-[…]-3′,and XRCC5 antisense 5′-[…]-3′. β-actin was used as a housekeeping gene for normalization. The cDNA was quantified using real-time PCR with SYBR Green/fluorescein qPCR master mix (ThermoScientific, Carlsbad, CA, USA) on a Lightcycler 96 system (Roche Diagnostics, Mannheim, Germany) according to the manufacturer’s protocol.

H1299 cells [4] = assay: qPCR of DNA damage repair genes and STAT5 mRNA; format: cell-based, human; settings: 24 h
From the text: as §2

A549 cells [5] = assay: Clonogenic survival assay with γ-radiation; format: cell-based, human
Description: (§3) Cells were seeded on 60-mm culture dishes at various densities and then treated with DMSO or 2 μM AIU2001. After 2 h, the cells were treated with the indicated doses of ^137Cs γ-radiation. After 10 days, the colonies were fixed and stained with 1.5% methylene blue (Sigma Aldrich) in methanol solution. Colonies containing > 50 cells were counted. The dose enhancement ratio (DER) was calculated as the dose (Gy) of radiation that yielded a surviving fraction of 0.1 for DMSO-treated cells divided by that dose for AIU2001-treated cells. The experiment was performed in triplicate.

H1299 cells [6] = assay: Clonogenic survival assay with γ-radiation; format: cell-based, human
Description: as §3

T10 sequence (Q15303 26-1308): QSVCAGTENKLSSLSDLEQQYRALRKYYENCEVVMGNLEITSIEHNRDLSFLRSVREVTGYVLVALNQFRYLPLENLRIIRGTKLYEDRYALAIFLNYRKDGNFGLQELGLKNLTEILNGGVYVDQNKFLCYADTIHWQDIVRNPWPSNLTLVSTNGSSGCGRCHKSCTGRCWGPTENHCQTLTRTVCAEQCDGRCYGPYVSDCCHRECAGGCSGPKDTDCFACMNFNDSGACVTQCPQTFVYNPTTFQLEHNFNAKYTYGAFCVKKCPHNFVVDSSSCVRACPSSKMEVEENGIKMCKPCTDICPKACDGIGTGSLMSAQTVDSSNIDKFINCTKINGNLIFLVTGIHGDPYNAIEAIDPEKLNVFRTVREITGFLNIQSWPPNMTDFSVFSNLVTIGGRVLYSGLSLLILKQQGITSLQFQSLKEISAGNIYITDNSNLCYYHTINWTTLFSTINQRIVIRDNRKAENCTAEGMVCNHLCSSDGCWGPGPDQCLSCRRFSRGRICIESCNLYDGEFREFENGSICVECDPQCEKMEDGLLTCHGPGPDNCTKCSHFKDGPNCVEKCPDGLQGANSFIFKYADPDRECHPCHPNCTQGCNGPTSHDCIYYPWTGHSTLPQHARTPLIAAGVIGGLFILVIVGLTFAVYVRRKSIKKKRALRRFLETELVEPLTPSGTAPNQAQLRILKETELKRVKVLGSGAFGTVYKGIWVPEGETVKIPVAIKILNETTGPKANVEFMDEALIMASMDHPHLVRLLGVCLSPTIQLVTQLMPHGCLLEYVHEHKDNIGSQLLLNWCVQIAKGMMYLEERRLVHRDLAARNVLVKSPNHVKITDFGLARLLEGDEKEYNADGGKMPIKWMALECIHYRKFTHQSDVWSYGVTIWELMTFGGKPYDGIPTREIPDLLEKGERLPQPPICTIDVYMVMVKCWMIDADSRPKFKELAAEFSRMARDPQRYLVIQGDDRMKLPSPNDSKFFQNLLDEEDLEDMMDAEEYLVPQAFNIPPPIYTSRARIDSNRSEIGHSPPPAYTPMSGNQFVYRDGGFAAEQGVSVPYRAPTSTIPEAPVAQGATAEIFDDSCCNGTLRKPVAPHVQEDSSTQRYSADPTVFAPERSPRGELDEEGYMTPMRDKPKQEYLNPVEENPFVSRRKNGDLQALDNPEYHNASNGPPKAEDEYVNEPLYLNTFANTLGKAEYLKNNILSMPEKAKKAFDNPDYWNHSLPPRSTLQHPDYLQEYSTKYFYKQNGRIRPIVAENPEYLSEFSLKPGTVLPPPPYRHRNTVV
T7 sequence (P53355 whole entry): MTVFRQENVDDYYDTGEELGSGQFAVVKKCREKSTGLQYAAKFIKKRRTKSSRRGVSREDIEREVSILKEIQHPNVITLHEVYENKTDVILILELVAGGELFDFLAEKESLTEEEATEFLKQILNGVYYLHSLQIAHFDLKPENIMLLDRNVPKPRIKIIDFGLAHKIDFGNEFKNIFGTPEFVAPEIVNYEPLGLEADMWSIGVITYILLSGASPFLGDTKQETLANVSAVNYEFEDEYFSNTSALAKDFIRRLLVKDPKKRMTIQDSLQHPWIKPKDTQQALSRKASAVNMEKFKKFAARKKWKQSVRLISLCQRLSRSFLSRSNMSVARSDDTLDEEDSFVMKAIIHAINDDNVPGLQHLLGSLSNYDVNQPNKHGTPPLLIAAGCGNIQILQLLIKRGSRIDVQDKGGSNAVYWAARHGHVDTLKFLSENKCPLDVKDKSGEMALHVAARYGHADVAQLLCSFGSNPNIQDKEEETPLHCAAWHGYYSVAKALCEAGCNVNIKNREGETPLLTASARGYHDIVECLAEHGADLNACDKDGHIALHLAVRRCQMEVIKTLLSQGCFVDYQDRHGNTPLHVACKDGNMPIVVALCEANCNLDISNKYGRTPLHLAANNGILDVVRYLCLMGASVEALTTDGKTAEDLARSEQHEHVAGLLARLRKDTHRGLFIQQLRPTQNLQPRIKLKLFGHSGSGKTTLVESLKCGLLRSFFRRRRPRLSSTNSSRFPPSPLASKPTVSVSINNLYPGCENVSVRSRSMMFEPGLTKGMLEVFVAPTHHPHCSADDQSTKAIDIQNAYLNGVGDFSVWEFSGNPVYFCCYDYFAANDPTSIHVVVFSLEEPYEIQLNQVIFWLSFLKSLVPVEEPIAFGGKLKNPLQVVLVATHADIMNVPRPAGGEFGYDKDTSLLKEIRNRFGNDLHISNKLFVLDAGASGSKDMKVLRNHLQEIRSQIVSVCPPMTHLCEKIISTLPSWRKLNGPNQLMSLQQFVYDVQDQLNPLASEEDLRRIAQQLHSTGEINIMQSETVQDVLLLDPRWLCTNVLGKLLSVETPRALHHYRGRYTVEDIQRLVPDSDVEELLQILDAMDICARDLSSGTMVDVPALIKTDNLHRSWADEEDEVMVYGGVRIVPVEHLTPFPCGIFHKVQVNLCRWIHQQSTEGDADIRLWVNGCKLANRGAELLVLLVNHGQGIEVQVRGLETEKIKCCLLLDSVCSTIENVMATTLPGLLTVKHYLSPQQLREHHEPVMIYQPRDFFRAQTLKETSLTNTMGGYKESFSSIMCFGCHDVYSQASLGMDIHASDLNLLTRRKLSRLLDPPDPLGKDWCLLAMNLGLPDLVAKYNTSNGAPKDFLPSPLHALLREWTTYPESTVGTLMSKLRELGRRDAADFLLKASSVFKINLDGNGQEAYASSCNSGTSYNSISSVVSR
T13 sequence (P17948 27-1338): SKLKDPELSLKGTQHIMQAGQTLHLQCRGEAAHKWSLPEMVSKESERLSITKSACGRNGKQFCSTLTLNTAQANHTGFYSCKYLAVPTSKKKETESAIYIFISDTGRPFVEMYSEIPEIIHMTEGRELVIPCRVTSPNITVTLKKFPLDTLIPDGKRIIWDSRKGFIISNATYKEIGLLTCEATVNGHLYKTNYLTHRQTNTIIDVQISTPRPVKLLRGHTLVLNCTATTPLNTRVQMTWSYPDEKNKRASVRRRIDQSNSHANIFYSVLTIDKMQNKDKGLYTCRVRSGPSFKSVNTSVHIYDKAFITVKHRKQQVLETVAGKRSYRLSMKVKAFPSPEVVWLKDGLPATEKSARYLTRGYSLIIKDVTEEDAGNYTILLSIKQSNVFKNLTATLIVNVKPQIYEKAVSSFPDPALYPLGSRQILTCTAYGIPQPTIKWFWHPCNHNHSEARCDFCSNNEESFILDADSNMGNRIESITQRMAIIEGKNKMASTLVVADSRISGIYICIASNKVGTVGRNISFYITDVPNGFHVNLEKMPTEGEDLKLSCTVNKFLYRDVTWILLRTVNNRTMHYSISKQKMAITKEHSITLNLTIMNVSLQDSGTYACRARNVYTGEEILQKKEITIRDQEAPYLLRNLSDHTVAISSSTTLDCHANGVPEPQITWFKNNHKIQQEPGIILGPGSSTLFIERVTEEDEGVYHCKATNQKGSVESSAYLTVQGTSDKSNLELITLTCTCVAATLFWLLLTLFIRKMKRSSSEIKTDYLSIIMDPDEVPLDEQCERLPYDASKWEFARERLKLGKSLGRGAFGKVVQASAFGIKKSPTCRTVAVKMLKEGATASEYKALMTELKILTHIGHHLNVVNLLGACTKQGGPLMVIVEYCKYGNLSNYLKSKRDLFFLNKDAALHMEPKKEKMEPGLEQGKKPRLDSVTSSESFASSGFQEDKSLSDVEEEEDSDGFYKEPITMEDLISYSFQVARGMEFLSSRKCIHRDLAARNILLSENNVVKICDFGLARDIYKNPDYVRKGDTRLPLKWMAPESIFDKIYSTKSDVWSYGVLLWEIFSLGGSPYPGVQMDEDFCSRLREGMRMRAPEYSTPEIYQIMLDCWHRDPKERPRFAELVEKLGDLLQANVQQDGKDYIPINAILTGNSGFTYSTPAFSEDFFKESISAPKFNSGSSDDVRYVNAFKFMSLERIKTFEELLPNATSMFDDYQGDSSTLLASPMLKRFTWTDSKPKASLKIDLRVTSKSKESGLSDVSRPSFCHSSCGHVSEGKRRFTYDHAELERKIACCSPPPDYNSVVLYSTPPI
T15 sequence (O15111 whole entry): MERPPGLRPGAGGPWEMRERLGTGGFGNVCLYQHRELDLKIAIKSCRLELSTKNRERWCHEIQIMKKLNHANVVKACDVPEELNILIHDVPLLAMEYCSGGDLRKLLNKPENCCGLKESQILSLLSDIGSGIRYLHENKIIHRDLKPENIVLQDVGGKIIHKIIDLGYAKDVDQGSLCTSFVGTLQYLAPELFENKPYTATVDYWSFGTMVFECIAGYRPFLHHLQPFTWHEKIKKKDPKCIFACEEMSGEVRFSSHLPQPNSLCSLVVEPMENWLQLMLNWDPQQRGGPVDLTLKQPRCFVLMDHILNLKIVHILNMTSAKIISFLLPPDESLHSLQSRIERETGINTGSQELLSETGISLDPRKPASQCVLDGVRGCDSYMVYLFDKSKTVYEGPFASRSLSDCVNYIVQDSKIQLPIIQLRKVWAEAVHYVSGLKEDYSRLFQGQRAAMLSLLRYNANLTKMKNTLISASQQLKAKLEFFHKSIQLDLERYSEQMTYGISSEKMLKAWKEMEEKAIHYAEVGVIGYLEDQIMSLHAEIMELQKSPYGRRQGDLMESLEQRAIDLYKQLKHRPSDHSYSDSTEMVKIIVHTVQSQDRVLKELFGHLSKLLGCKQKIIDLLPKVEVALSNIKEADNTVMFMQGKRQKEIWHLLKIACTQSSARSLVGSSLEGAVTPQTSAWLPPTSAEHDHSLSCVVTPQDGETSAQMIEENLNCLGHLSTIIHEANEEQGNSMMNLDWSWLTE

- pIC50 (FLT4): 6.10
- pIC50 (c-KIT (V560G)): 7.27
- inhibition at 10 µM (AMPKα1): 25%
- inhibition at 10 µM (ARK5): 75%
- inhibition at 10 µM (B-RAF): 0%
- inhibition at 10 µM (CHK2): 14%
- inhibition at 10 µM (DAPK1): 12%
- inhibition at 10 µM (EPHB4): 10%
- inhibition at 10 µM (ERBB2): 0%
- inhibition at 10 µM (ERBB4): 1%
- inhibition at 10 µM (FGFR1): 1%
- inhibition at 10 µM (FGFR2): 1%
- inhibition at 10 µM (FLT1): 44%
- inhibition at 10 µM (HIPK2): 0%
- inhibition at 10 µM (IKKα): 7%
- inhibition at 10 µM (p70S6K): 8%
- inhibition at 10 µM (ROCK-I): 0%
- inhibition at 10 µM (ROS): 2%
- inhibition at 10 µM (TrkA): 40%
- inhibition at 10 µM (PI3 Kinase (p110a/p85a)): 7%
SMILES: Brc1ccc(-c2cnc(Nc3cccc4ccccc34)o2)cc1 [AIU2001, 5-(4-bromophenyl)-N-(naphthalen-1-yl) oxazol-2-amine]
- Cell cycle effect (A549 cells [1]; 3 h, 6 h or 24 h): G2/M phase arrest
- Cells in the sub-G1 phase (A549 cells [1]; 24 h): 3.3%
- Cell cycle effect (H1299 cells [2]; 3 h, 6 h or 24 h): G2/M phase arrest
- Cells in the sub-G1 phase (H1299 cells [2]; 24 h): 23.1%
- Expression level of STAT5 mRNA (A549 cells [3]): downregulated
- mRNA levels of HR (BRCA1, BRCA2, BARD1, RAD51) and NHEJ (XRCC5, XRCC6) genes (A549 cells [3]): reduced the mRNA levels
- Expression level of STAT5 mRNA (H1299 cells [4]): downregulated
- mRNA levels of HR (BRCA1, BRCA2, BARD1, RAD51) and NHEJ (XRCC5, XRCC6) genes (H1299 cells [4]): reduced the mRNA levels
- Dose enhancement ratio (DER) at surviving fraction of 0.1 over DMSO-treated cells (A549 cells [5]; 2 μM, 2 h before IR, 10 days): 1.33
- Radiosensitivity (A549 cells [5]; clonogenic survival): radiosensitized
- Dose enhancement ratio (DER) at surviving fraction of 0.1 over DMSO-treated cells (H1299 cells [6]; 2 μM, 2 h before IR, 10 days): 1.15
- Radiosensitivity (H1299 cells [6]; clonogenic survival): radiosensitized
